Laboratory results published in US20220370440A1 (Lead Discovery Center GmbH, priority 2018, published 2022).

How the values were obtained:
EGFR wt = EGFR wt (Homo sapiens, UniProt P00533); assay: EGFR wt Lance assay; format: biochemical
Procedure: (§1) Inhibition is indicated as […] [nM] (“−”=not measured). Compounds having an activity designated as “A” provided an IC50≤100 nM; compounds having an activity designated as “B” provided an 100 nM<IC50≤500 nM; compounds having an activity designated as “C” provided an 500 nM<IC50≤1000 nM; compounds having an activity designated as “D” provided an 1000 nM<IC50≤100000 nM; and compounds having an activity designated as “E” provided an IC50>10000 nM.

EGFR T790ML858R = EGFR T790ML858R (Homo sapiens, UniProt P00533, L858R/T790M); assay: EGFR T790ML858R Lance assay; format: biochemical
Procedure: as §1

[1] = target: Her2 Exon 20 INSYVMA Ba/F3 (Homo sapiens, UniProt P04626, DUP772-775, cells depend on it); assay: Her2 Exon 20 INSYVMA Ba/F3 CellTiter-Glo; format: cell-based; details: CellTiter-Glo, 72 h, read-out: Her2 Exon 20 INSYVMA Ba/F3 CTG IC50
Chain of Her2 Exon 20 INSYVMA Ba/F3 (P04626 with tags, fused parts or gaps DUP772-775): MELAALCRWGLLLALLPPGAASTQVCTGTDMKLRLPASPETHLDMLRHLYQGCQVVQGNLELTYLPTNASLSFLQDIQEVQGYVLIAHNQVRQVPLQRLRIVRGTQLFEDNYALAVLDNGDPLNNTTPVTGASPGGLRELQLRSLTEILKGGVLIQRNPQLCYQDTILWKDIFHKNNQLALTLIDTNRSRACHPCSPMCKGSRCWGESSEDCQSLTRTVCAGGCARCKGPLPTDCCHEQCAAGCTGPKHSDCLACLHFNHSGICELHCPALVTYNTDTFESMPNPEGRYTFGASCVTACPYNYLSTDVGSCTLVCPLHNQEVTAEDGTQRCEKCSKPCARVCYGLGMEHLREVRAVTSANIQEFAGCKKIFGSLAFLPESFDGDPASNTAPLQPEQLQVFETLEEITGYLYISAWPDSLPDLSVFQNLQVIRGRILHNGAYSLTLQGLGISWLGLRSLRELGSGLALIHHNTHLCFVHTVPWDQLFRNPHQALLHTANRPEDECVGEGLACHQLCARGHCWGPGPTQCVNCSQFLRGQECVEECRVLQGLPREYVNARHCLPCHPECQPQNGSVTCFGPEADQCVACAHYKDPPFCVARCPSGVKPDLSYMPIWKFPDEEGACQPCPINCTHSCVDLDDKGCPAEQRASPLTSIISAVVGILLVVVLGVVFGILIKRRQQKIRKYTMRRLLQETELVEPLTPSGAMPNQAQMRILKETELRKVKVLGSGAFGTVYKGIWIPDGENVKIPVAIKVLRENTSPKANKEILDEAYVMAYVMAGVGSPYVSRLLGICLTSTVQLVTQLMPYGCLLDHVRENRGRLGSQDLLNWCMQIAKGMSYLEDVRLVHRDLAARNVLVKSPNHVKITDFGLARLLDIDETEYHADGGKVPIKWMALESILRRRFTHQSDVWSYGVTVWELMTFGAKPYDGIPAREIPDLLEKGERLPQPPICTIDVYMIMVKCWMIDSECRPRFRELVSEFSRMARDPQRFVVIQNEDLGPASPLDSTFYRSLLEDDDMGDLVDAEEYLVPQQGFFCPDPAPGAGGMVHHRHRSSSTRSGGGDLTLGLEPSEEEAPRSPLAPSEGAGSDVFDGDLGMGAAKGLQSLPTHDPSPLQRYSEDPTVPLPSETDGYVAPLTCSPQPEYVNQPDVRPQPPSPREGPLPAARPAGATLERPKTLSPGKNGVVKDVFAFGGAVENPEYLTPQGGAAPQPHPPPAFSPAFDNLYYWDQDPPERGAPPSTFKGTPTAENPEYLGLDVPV
How it was run: (§2)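 Using a 72 h viability readout, compound-treated Ba/F3 cells (pre-incubated 24 h after seeding) were lysed with CellTiter-Glo reagent and luminescence recorded. Potency was expressed as IC50 from a fitted dose–response curve.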

H1975 = H1975 CellTiter-Glo; format: cell-based; details: Homo sapiens, NCI-H1975; 72 h compound incubation; read-out: H1975 CTG IC50
How it was run: (§3)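 Antiproliferative IC50 values come from a 72 h treatment of cultured cells, measured by CellTiter-Glo ATP luminescence. Only runs with a Z′-factor of at least 0.5, calculated from 16 vehicle and 16 Staurosporine (10 μM) control wells, are reported.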

A431 = A431 CellTiter-Glo; format: cell-based; details: Homo sapiens, A-431; 72 h compound incubation; read-out: A431 CTG IC50
How it was run: as §3

[2] = Metabolic stability in mouse liver microsomes without cofactor NADPH; format: in vitro ADME; details: 3 μM test compound, mouse liver microsomes, without NADPH, 50 min, 37° C., LC-MS/MS
How it was run: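 Test compound (3 μM) was incubated with mouse liver microsomes without NADPH at 37° C. Depletion was followed by LC-MS/MS over time up to 50 min.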

HER2 INS YVMA = target: T1, HER2 INS YVMA (Homo sapiens, UniProt P04626, INS775YVMA); assay: Lance Kinase Activity Assay, HER2 INS YVMA (Her2 Exon 20 INSYVMA Lance); format: biochemical; details: biochemical Lance assay
T1 construct: purchased DPF
T1 sequence (P04626 with tags, fused parts or gaps INS775YVMA): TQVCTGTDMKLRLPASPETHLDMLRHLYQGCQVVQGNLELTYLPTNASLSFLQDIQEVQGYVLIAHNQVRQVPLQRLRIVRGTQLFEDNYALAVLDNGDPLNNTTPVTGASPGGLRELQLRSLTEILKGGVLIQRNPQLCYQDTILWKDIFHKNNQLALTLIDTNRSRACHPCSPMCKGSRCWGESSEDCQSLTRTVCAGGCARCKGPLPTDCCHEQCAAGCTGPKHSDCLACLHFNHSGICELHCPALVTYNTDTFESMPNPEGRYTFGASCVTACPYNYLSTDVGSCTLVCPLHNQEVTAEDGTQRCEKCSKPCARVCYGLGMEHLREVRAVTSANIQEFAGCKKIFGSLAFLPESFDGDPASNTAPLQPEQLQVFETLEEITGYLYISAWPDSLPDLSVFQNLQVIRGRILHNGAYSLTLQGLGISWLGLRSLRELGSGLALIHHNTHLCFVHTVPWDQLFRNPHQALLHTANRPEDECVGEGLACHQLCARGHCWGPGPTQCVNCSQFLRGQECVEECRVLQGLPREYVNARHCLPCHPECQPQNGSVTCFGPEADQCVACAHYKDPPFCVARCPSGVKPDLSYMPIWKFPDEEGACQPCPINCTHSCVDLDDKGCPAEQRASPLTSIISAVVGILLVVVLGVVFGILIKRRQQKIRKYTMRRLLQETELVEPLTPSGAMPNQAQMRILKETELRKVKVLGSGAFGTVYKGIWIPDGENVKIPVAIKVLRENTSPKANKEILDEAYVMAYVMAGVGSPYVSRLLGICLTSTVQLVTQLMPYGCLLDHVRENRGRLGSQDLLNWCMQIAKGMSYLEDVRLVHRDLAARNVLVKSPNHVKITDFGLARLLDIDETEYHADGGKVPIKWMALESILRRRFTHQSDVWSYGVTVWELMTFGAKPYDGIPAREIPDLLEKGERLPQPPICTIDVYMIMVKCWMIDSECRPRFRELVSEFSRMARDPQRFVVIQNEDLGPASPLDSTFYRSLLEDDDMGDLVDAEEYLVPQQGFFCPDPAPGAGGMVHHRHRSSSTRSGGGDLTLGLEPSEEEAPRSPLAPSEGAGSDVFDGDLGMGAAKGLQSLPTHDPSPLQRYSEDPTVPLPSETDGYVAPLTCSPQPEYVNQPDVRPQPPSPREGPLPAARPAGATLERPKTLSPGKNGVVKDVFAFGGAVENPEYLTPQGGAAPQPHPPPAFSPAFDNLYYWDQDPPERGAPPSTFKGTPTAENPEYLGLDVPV
How it was run: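 Kinase phosphorylates a ULight-labelled peptide substrate; Eu anti-phospho antibody gives TR-FRET (ex 340 nm, em 665/615 nm). Compounds in 1:3 serial dilution over 8 steps, reaction started with ATP, 1 h at room temperature, stopped with EDTA-containing detection mix for 1 h. IC50 from sigmoidal dose-response curves.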

[3] = target: EGFR Exon 20 INSNPH Ba/F3 (Homo sapiens, UniProt P00533, DUP771-773, cells depend on it); assay: EGFR Exon 20 INSNPH Ba/F3 CellTiter-Glo; format: cell-based; details: CellTiter-Glo, 72 h, read-out: EGFR Exon 20 INSNPH Ba/F3 CTG IC50
Chain of EGFR Exon 20 INSNPH Ba/F3 (P00533 with tags, fused parts or gaps DUP771-773): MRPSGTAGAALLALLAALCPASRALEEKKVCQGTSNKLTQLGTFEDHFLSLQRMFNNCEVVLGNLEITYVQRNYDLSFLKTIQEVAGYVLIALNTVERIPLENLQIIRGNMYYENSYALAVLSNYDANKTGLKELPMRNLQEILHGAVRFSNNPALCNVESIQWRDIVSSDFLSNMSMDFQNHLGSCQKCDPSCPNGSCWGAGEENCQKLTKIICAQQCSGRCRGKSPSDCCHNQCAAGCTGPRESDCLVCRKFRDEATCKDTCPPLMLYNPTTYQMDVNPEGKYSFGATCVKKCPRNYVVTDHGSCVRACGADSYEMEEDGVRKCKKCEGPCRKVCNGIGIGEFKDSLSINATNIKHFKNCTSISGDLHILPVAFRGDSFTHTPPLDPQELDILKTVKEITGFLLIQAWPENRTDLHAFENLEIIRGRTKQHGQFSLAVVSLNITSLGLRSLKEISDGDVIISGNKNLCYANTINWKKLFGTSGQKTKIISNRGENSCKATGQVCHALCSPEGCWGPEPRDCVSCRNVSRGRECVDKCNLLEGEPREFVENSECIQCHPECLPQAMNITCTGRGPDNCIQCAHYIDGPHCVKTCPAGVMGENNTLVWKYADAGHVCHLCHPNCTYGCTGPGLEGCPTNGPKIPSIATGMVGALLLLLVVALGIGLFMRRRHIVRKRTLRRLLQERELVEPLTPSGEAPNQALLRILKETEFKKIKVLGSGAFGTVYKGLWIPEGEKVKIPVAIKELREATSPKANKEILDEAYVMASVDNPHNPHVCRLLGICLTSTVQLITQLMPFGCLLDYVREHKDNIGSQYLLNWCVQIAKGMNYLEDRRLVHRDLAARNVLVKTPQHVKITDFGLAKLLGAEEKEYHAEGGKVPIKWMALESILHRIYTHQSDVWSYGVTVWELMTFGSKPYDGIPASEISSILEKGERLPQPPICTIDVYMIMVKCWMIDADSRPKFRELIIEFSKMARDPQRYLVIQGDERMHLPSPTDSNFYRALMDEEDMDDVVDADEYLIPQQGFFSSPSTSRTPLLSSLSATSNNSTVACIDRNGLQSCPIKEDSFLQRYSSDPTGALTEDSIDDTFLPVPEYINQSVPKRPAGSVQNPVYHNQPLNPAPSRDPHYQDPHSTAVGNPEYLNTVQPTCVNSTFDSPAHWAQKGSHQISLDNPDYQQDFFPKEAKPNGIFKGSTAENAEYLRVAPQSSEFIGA
How it was run: as §2

H1781 = H1781 CellTiter-Glo; format: cell-based; details: NCI-H1781; 72 h compound incubation; read-out: H1781 CTG IC50
Procedure: 2. Measurement of Cellular Activity
The CellTiter-Glo Luminescent Cell Viability Assay (Promega) is a homogeneous method of determining the number of viable cells in culture. It is based on quantification of ATP, indicating the presence of metabolically active cells. Cells are seeded on day 1 at cell numbers that assure assay linearity and optimal signal intensity. After incubation for 24 h in humidified chambers at 37° C. and 5% CO2, compounds in DMSO are added at different concentrations. Cells are further incubated for 72 h at 37° C. and 5% CO2. Cells treated with the compound vehicle DMSO are used as positive controls and cells treated with 10 μM Staurosporine serve as negative controls. At day 5 the CellTiter Glo Reagent is prepared according to the instructions of the kit (Promega Inc.): Reagent is mixed 1:1 with cell culture medium. Thereon, mixture and assay plates are equilibrated at room temperature for 20 min. Equal volumes of the reagent-medium-mixture is added to the volume of culture medium present in each well. The plates are mixed at ˜200 rpm for 2 minutes on an orbital shaker. The microplates are then incubated at room temperature for 10 minutes for stabilization of the luminescent signal. Following incubation the luminescence is recorded on a Victor microplate reader (Perkin Elmer) using a 200 ms integration time. The data is then analyzed with Excel using the XLFIT Plugin (dose response Fit 205) for IC50-determination. As quality control the Z′-factor is calculated from 16 positive and negative control values. Only assay results showing a Z′-factor ≥0.5 are used for further analysis.
as §1

Chain of EGFR wt (P00533 25-1210): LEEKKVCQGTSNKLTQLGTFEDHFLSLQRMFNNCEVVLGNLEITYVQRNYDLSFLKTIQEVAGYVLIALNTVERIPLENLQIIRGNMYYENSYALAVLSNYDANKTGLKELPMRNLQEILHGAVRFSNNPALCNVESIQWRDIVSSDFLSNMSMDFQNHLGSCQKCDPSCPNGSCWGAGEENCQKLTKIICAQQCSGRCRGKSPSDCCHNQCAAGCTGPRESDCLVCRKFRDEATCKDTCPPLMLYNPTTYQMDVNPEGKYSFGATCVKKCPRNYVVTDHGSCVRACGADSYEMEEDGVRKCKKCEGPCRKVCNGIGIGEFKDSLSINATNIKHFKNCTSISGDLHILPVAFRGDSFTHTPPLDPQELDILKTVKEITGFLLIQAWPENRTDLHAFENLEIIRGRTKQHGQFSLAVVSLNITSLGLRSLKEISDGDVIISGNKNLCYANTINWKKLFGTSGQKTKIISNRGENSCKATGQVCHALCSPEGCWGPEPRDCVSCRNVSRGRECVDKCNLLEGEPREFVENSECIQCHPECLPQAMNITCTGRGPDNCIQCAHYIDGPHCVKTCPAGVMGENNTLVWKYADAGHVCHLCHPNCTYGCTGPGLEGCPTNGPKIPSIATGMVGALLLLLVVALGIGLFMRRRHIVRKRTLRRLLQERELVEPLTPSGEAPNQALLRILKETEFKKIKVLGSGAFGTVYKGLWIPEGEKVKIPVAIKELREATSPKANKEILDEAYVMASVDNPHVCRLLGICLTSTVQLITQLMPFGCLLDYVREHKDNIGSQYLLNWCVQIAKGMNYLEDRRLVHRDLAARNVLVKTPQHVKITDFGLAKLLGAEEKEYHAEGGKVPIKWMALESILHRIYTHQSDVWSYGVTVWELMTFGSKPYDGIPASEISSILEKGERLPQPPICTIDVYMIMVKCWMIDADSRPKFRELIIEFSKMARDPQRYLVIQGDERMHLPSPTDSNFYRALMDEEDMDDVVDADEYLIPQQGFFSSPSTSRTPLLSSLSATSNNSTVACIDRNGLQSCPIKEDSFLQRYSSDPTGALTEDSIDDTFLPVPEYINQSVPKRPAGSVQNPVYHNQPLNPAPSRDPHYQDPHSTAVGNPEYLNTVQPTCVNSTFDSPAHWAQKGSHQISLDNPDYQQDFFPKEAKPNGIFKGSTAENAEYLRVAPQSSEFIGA

IC50 (EGFR wt) [nM] | IC50 (EGFR T790ML858R) [nM] | GI50 [1] [nM] | IC50 (H1975) [nM] | IC50 (A431) [nM] | Stability in presence of mouse liver microsomes without cofactor NADPH [% remaining after 50 min] [2] [% remaining after 50 min] | IC50 (HER2 INS YVMA) [nM] | GI50 [3] [nM] | IC50 (H1781) [nM] | SMILES
≤ 100 | ≤ 100 | 100 to 500 | ≤ 100 | 100 to 500 | >99 | ≤ 100 | 100 to 500 | 100 to 500 | C=CC(=O)Nc1cc(-c2c(-c3ccc(OCCCN4CCN(CC)CC4)cc3)[nH]c3nccc(Cl)c23)ccc1C [Example 23, N-(5-(4-chloro-2-(4-(3-(4-ethylpiperazin-1-yl)propoxy)phenyl)-1H-pyrrolo[2,3-b]pyridin-3-yl)-2-methylphenyl)acrylamide]
≤ 100 | ≤ 100 | 100 to 500 | 100 to 500 | 1000 to 100000 | >99 | ≤ 100 | 500 to 1000 | 1000 to 100000 | C=CC(=O)N1CCc2ccc(-c3c(-c4ccc(N5CCN(C)CC5)c(F)c4)[nH]c4nccc(Cl)c34)cc21 [Example 57, 1-(6-(4-chloro-2-(3-fluoro-4-(4-methylpiperazin-1-yl)phenyl)-1H-pyrrolo[2,3-b]pyridin-3-yl)indolin-1-yl)prop-2-en-1-one]
≤ 100 | ≤ 100 | 100 to 500 | ≤ 100 | 100 to 500 | >99 | 100 to 500 | 100 to 500 | 500 to 1000 | C=CC(=O)Nc1cc(-c2c(-c3ccc(N4CCN(S(=O)(=O)CC)CC4)cc3)[nH]c3nccc(Cl)c23)ccc1C [Example 15, N-(5-(4-chloro-2-(4-(4-(ethylsulfonyl)piperazin-1-yl)phenyl)-1H-pyrrolo[2,3-b]pyridin-3-yl)-2-methylphenyl)acrylamide]
≤ 100 | ≤ 100 | ≤ 100 | ≤ 100 | 500 to 1000 | >99 | ≤ 100 | ≤ 100 | 100 to 500 | C=CC(=O)Nc1cc(-c2c(-c3ccc(CN(C)C)cc3)[nH]c3nccc(Cl)c23)ccc1C [Example 10, N-(5-(4-chloro-2-(4-((dimethylamino)methyl)phenyl)-1H-pyrrolo[2,3-b]pyridin-3-yl)-2-methylphenyl)acrylamide]
≤ 100 | ≤ 100 | 100 to 500 | ≤ 100 | 100 to 500 | 95 | ≤ 100 | 100 to 500 | 100 to 500 | C=CC(=O)Nc1cc(-c2c(-c3ccc(OCCCN(C)C)cc3)[nH]c3nccc(Cl)c23)ccc1C [Example 13, N-(5-(4-chloro-2-(4-(3-(dimethylamino)propoxy)phenyl)-1H-pyrrolo[2,3-b]pyridin-3-yl)-2-methylphenyl)acrylamide]
≤ 100 | ≤ 100 | 100 to 500 | ≤ 100 | 100 to 500 | >99 | ≤ 100 | 100 to 500 | 500 to 1000 | C=CC(=O)N1CCc2ccc(-c3c(-c4ccc(CN(C)C)cc4)[nH]c4nccc(Cl)c34)cc21 [Example 61, 1-(6-(4-chloro-2-(4-((dimethylamino)methyl)phenyl)-1H-pyrrolo[2,3-b]pyridin-3-yl)indolin-1-yl)prop-2-en-1-one]
≤ 100 | ≤ 100 | 100 to 500 | ≤ 100 | 100 to 500 | 90 | ≤ 100 | ≤ 100 | 100 to 500 | C=CC(=O)Nc1cc(-c2c(-c3ccc(OCCN(C)C)cc3)[nH]c3nccc(Cl)c23)ccc1C [Example 18, N-(5-(4-chloro-2-(4-(2-(dimethylamino)ethoxy)phenyl)-1H-pyrrolo[2,3-b]pyridin-3-yl)-2-methylphenyl)acrylamide]
≤ 100 | ≤ 100 | 100 to 500 | ≤ 100 | > 10000 | >99 | ≤ 100 | 100 to 500 | > 10000 | C=CC(=O)Nc1cc(-c2c(-c3ccc(CN4CCOCC4)cc3)[nH]c3nccc(Cl)c23)ccc1C [Example 5, N-(5-(4-chloro-2-(4-(morpholinomethyl)phenyl)-1H-pyrrolo[2,3-b]pyridin-3-yl)-2-methylphenyl)acrylamide]
≤ 100 | ≤ 100 | 100 to 500 | ≤ 100 | 100 to 500 | 92 | ≤ 100 | 100 to 500 | 100 to 500 | C=CC(=O)Nc1cc(-c2c(-c3ccc(N4CCNCC4)cc3)[nH]c3nccc(Cl)c23)ccc1C [Example 96, N-(5-(4-chloro-2-(4-(piperazin-1-yl)phenyl)-1H-pyrrolo[2,3-b]pyridin-3-yl)-2-methylphenyl)acrylamide 2,2,2-trifluoroacetate]
≤ 100 | ≤ 100 | 100 to 500 | ≤ 100 | 100 to 500 | >99 | ≤ 100 | 100 to 500 | 500 to 1000 | C=CC(=O)Nc1cc(-c2c(-c3ccc(C(=O)N4CCOCC4)cc3)[nH]c3nccc(Cl)c23)ccc1C [Example 11, N-(5-(4-chloro-2-(4-(morpholine-4-carbonyl)phenyl)-1H-pyrrolo[2,3-b]pyridin-3-yl)-2-methylphenyl)acrylamide]
≤ 100 | ≤ 100 | 100 to 500 | ≤ 100 | 100 to 500 | >99 | ≤ 100 | 100 to 500 | 100 to 500 | C=CC(=O)Nc1cc(-c2c(-c3cccc(OCCN(C)C)c3)[nH]c3nccc(Cl)c23)ccc1C [Example 28, N-(5-(4-chloro-2-(3-(2-(dimethylamino)ethoxy)phenyl)-1H-pyrrolo[2,3-b]pyridin-3-yl)-2-methylphenyl)acrylamide]
≤ 100 | ≤ 100 | 100 to 500 | ≤ 100 | 100 to 500 | >99 | ≤ 100 | 100 to 500 | 100 to 500 | C=CC(=O)N1CCc2ccc(-c3c(-c4ccnc(N5CCN(C)CC5)c4)[nH]c4nccc(Cl)c34)cc21 [Example 59, 1-(6-(4-chloro-2-(2-(4-methylpiperazin-1-yl)pyridin-4-yl)-1H-pyrrolo[2,3-b]pyridin-3-yl)indolin-1-yl)prop-2-en-1-one]
